Results reported in patent publication US10233186B2, “Inhibitors of activin receptor-like kinase” (BLUEPRINT MEDICINES CORPORATION, priority 2016, dated 2019).
Read-outs that look alike come from different tables or passages of the source.

Assays:
[1] = molecular target: T1, ALK2 R206H (GST-tagged mutant ALK2) (Homo sapiens, UniProt Q04771, R206H); assay: ALK binding assay (LANTHASCREEN TR-FRET competitive binding, displacement of Kinase Tracer 178)
T1 construct: purchased Carna Bioscience or ThermoFisher 09-148 or PV6232
T1 sequence (Q04771 21-509 R206H): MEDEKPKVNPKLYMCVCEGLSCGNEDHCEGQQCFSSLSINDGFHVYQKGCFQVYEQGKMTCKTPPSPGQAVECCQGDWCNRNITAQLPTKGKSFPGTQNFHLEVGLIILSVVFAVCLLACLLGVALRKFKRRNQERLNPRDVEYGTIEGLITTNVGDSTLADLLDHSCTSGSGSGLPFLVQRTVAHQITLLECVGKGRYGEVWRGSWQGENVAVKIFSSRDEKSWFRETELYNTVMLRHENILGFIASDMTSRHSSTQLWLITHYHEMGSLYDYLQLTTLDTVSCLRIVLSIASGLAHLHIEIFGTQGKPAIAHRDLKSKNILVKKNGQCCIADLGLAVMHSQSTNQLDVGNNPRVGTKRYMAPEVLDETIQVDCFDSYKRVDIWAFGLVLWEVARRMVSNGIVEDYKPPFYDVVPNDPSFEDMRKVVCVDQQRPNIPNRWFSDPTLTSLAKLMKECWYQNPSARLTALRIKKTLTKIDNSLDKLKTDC

human ALK2 R206H = molecular target: T2, human ALK2 R206H (Homo sapiens, UniProt Q04771, R206H); assay: Cell-based ALK2-R206H cell activity assay (Smad1-Ser463/Ser465 phosphorylation by AlphaLISA in HEK293-ALK2-R206H cells)
T2 construct: expressed in transfected cells; host or cells: HEK293 (ATCC CRL1573), lentivirus transduction, blasticidin selection
T2 sequence (Q04771 21-509 R206H): T1 sequence (Q04771 21-509 R206H)
Procedure, shortened: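 Stable HEK293 cells expressing C-terminally FLAG-tagged human ALK2 R206H (lentiviral, blasticidin-selected) were treated with compounds in 10-point, 3-fold dilutions from 10 μM or 1 μM top, in duplicate. Smad1 Ser463/Ser465 phosphorylation was read by AlphaLISA.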

[2] = ALK2 R206H, LANTHASCREEN TR-FRET competitive binding, read-out: Binding Assay (IC50)
[3] = read-out: Cell Line (Cell Assay IC50)

Row | Compound | IC50 [1, 2] [nM] | IC50 (human ALK2 R206H; [3]) [nM] | IC50 [1] [nM] | IC50 (human ALK2 R206H; Cell Line (Cell Assay IC50)) [nM]
1 | CC(C)N1CCN(C)[C@@H](c2ccc(-c3cc4c(N5CCN(C(=O)C6CC6)CC5)ccnn4c3)cc2)C1 [Compound 567] | < 10 | < 100 |  | 
2 | CC(C)N1CC2(CN(c3ccc(-c4cc5c(N6CCN(C(=O)[C@H]7CC[C@H](C#N)CC7)CC6)ccnn5c4)cc3)C2)C1 [Compound 442] | < 10 | < 100 |  | 
3 | C[C@@H]1CNC[C@H](c2ccc(-c3cc4c(N5CCN(C(=O)C6CC6)CC5)ccnn4c3)cc2)O1 [Compound 164] | < 10 | 100 to 500 |  | 
4 | CCOC(=O)N1CCN(c2ccnn3cc(-c4ccc(N5CCNCC5)cc4)cc23)CC1 [Compound 143] | < 10 | < 100 |  | 
5 | N#CC1CN(C(=O)N2CCN(c3ccnn4cc(-c5ccc(OC6CCCNC6)cc5)cc34)CC2)C1 (stereo not drawn) [Compound 309] | < 10 | 100 to 500 |  | 
6 | CO[C@@]1(c2ccc(-c3cc4c(N5CCN(C(=O)NC(C)C)CC5)ccnn4c3)cc2)CCN(C(C)C)C1 [Compound 638] | < 10 | < 100 |  | 
7 | O=C(C1CC1)N1CCN(c2ccnn3cc(-c4ccc(OCC5CCN5)cc4)cc23)CC1 (stereo not drawn) [Compound 132] | < 10 | < 100 |  | 
8 | CCN1CCN(c2ccc(-c3cc4c(N5CCN(C(=O)C6CC(F)(F)C6)CC5)ccnn4c3)cc2)CC1 [Compound 402] | < 10 | 100 to 500 |  | 
9 | COC1(c2ccc(-c3cc4c(N5CCN(C(=O)C6CC6)CC5)ccnn4c3)nc2)CCN([C@@H](C)COC(F)F)CC1 [Compound 886] | < 10 | < 100 |  | 
10 | N#C[C@H]1C[C@H](C(=O)N2CCN(c3ccnn4cc(-c5ccc([C@@H]6CCCNC6)cn5)cc34)CC2)C1 [Compound 500] | < 10 | 100 to 500 |  | 
11 | O=C(C1CC1)N1CCN(c2ccnn3cc(-c4ccc(N5CCNCC5C(F)F)cc4)cc23)CC1 (stereo not drawn) [Compound 297] | < 10 | < 100 |  | 
12 | CC(C)N1CCC[C@@H]1c1ccc(-c2cc3c(N4CCN(C(=O)C5CC5)CC4)ccnn3c2)cc1 [Compound 211] | < 10 | < 100 |  | 
13 | CC(C)N1CCC(c2ccc(-c3cc4c(N5CCN(C(=O)OCC(F)F)CC5)ccnn4c3)cc2)CC1 [Compound 652] | < 10 | < 100 |  | 
14 | CC1(C)CC(O)(c2ccc(-c3cc4c(N5CCN(C(=O)C6CC6)CC5)ccnn4c3)cc2)CC(C)(C)N1 [Compound 813] |  |  | < 10 | < 100
15 | CC(C)NC(=O)N1CCN(c2ccnn3cc(-c4ccc([C@H]5CCCN5)cn4)cc23)CC1 [Compound 467] | < 10 | 100 to 500 |  | 
16 | CCOC(=O)N1CCN(c2ccnn3cc(-c4ccc(C5(OCC)CCN(C(C)C)CC5)cn4)cc23)CC1 [Compound 835] | < 10 | < 100 |  | 
17 | CC(C)N1CCOCC1c1ccc(-c2cc3c(N4CCN(C(=O)C5CC5)CC4)ccnn3c2)cc1 (stereo not drawn) [Compound 520] | < 10 | < 100 |  | 
18 | C[C@@]1(c2ccc(-c3cc4c(N5CCN(C(=O)C6CC6)CC5)ccnn4c3)cc2)CCCN1 [Compound 460] | < 10 | < 100 |  | 
19 | COC(=O)N1CCN(c2ccnn3cc(-c4ccc(C5CCN(C(C)C)CC5)cc4)cc23)CC1 [Compound 232] | < 10 | 100 to 500 |  | 
20 | O=C(C1CC1)N1CCN(c2ccnn3cc(-c4ccc(C5(C(F)(F)F)CCNCC5)cc4)cc23)CC1 [Compound 808] | < 10 | < 100 |  | 
21 | CCO[C@]1(c2ccc(-c3cc4c(N5CCN(C(=O)NC(C)C)CC5)ccnn4c3)nc2)CCCNC1 [Compound 798] | < 10 | < 100 |  | 
22 | CC(C)N1CC[C@H](c2ccc(-c3cc4c(N5CCN(C(=O)C6CC6)CC5)ccnn4c3)cc2)C1 [Compound 204] | < 10 | < 100 |  | 
23 | COC1(c2ccc(-c3cc4c(N5CCN(C(=O)NC(C)C)CC5)ccnn4c3)cc2)CCN(C2COC2)CC1 [Compound 844] | < 10 | < 100 |  | 

Row | Compound | IC50 [1, 2] [nM] | IC50 (human ALK2 R206H; [3]) [nM] | IC50 [1] [nM] | IC50 (human ALK2 R206H; Cell Line (Cell Assay IC50)) [nM]
24 | CC(C)N1CCN(c2ccc(-c3cc4c(N5CCN(C(=O)[C@@H]6C[C@H]6F)CC5)ccnn4c3)cc2)CC1 [Compound 349] | < 10 | < 100 |  | 
25 | O=C(C1CC1)N1CCN(c2ccnn3cc(-c4nc5c(s4)CNCC5)cc23)CC1 [Compound 109] | < 10 | < 100 |  | 
26 | COC[C@H](C)N1CCC(OC)(c2ccc(-c3cc4c(N5CCN(C(=O)C6CC6)CC5)ccnn4c3)nc2)CC1 [Compound 711] | < 10 | < 100 |  | 
27 | COC1(c2ccc(-c3cc4c(N5CCN(C(=O)OC6COC6)CC5)ccnn4c3)c(F)c2)CCNCC1 [Compound 650] | < 10 | < 100 |  | 
28 | CC[C@H](C)NC(=O)N1CCN(c2ccnn3cc(-c4ccc(C5CCN(C(C)C)CC5)cc4)cc23)CC1 [Compound 393] | < 10 | 100 to 500 |  | 
29 | CC(C)N1CCN(c2ccc(-c3cc4c(N5CCN(C(=O)[C@H]6C[C@H]6F)CC5)ccnn4c3)cc2)CC1 [Compound 350] | < 10 | < 100 |  | 
30 | [2H]C1(OC(=O)N2CCN(c3ccnn4cc(-c5ccc(C6CCN(C(C)C)CC6)cc5)cc34)CC2)COC1 [Compound 814] | < 10 | < 100 |  | 
31 | O=C(C1CC1)N1CCN(c2ccnn3cc(-c4ccc(N5CCNC(C(F)(F)F)C5)cc4)cc23)CC1 (stereo not drawn) [Compound 373] | 10 to 50 | > 500 |  | 
32 | CCN1CCN(c2ccc(-c3cc4c(N5CCN(C(=O)[C@H]6C[C@@H]6C#N)CC5)ccnn4c3)cc2)CC1 [Compound 302] | < 10 | < 100 |  | 
33 | CC(C)N1CC[C@H](c2ccc(-c3cc4c(N5CCN(C(=O)[C@H]6CC[C@H](O)CC6)CC5)ccnn4c3)cc2)C1 [Compound 418] | < 10 | < 100 |  | 
34 | CCOC1(c2ccc(-c3cc4c(N5CCN(C(=O)C6CC6)CC5)ccnn4c3)cc2)CCN(C(C)C)CC1 [Compound 658] | < 10 | < 100 |  | 
35 | CCOC(=O)N1CCN(c2ccnn3cc(-c4ccc([C@@]5(OCC)CCCNC5)cn4)cc23)CC1 [Compound 788] | < 10 | < 100 |  | 
36 | CCNC(=O)N1CCN(c2ccnn3cc(-c4ccc(N5CCNCC5)cc4)cc23)CC1 [Compound 140] | < 10 | < 100 |  | 
37 | CCOC(=O)N1CCN(c2ccnn3cc(-c4ccc([C@]5(F)CCCN(C(C)C)C5)cc4)cc23)CC1 [Compound 610] | < 10 | < 100 |  | 
38 | CCNC(=O)N1CCN(c2ccnn3cc(-c4ccc(C5(OC)CCN(C(C)C)CC5)c(F)c4)cc23)CC1 [Compound 697] | < 10 | < 100 |  | 
39 | CCN1CCC(c2ccc(-c3cc4c(N5CCN(C(=O)C6CC(C)(O)C6)CC5)ccnn4c3)cc2)CC1 (stereo not drawn) [Compound 383] | < 10 | < 100 |  | 
40 | CC(C)NC(=O)N1CCN(c2ccnn3cc(-c4ccc([C@@H]5CCCN(C(C)C)C5)cc4)cc23)CC1 [Compound 577] | < 10 | < 100 |  | 
41 | O=C(OC1COC1)N1CCN(c2ccnn3cc(-c4ccc(N5CCNCC5)cn4)cc23)CC1 [Compound 776] | < 10 | < 100 |  | 
42 | CCO[C@]1(c2ccc(-c3cc4c(N5CCN(C(=O)OC6COC6)CC5)ccnn4c3)cc2)CCCNC1 [Compound 815] | < 10 | < 100 |  | 
43 | CCN1CCN(c2ccc(-c3cc4c(N5CCN(C(=O)[C@H]6CC[C@H](O)CC6)CC5)ccnn4c3)cc2)CC1 [Compound 422] | < 10 | < 100 |  | 
44 | CC(C)N1CCC(c2ccc(-c3cc4c(N5CCN(C(=O)OC6CCOCC6)CC5)ccnn4c3)cc2)CC1 [Compound 709] | < 10 | 100 to 500 |  | 
45 | CCN1CCC(Oc2ccc(-c3cc4c(N5CCN(C(=O)C6CC6)CC5)ccnn4c3)cc2)C1 (stereo not drawn) [Compound 216] | < 10 | < 100 |  | 
